One series deals with EZH2 (Homo sapiens, UniProt Q15910). In words: Inhibitory activity against EZH2 methyltransferase (radiometric scintillation proximity assay).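 Note: Read-out is substrate peptide methylation, captured on streptavidin-coated SPA beads and counted by scintillation, with the reaction run in Tris-HCl buffer at pH 8.0 containing 1% DMSO.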 The following applies: Enzyme inhibitory activity (IC50, nM) EZH2, 2.3 nmol/L enzyme, 90 minutes, room temperature. For orientation: SPA uses beads or plates that emit light when radiolabelled molecules are held near them.
Series [1] can be described thus: Metabolic stability in mouse liver microsomes. The following applies: 5 μM compound, 1 mg/mL mouse liver microsomes, 37° C., NADPH regenerating system. It is filed as in vitro ADME. The method, then:
(§1) In order to confirm the metabolic stability of the synthetic compounds in the liver, 5 μM test compound and 1 mg/mL human, dog, rat or mouse liver microsomes were allowed to react with each other at 37° C. in the presence of the NADPH regenerating system for 1 hour. After 1 hour, the reaction was terminated and the supernatant obtained by centrifugation was analyzed by HPLC. With the peak value obtained as the analysis result, the residual amount (%) was calculated using the following equation through the peak value of the test compound after 1 hour of the reaction versus the peak value of the test compound at 0 min. Residual amount (%)=(peak value of test compound after 1 hour of reaction/peak value of test compound at 0 min)×100
(Liver microsomes are a subcellular fraction often used to study metabolism.)

The test system of series [2] is Pfeiffer (EZH2 A677G mutation). In words: Cell growth inhibition test, Pfeiffer. In kind it is cell-based. The following applies: Homo sapiens, read-out: Cell growth inhibitory activity (GI50, nM) Pfeiffer (EZH2 A677G mutation). The procedure:
Each type of the cultured cells was seeded in 6-well plates or 48-96 well plates, and subculture or medium replacement was performed every 3 to 4 days. Next, the cells were subcultured for a total of 7 to 14 days, and then seeded in 96-well plates. 3 to 5 days before the measurement of the effect, the cells were seeded in 96-well plates, and then the absorbance (Tz) on the day of seeding was measured. The absorbance after the reaction was measured by the plate reader device Synergy NeoAlpha (Biotek) using Cell-Titer-Glo Cell Viability Assay (Promega, G7573) according to the attached manual. Based on the absorbance (Tz) measured on the seeding day and the absorbance of each of the DMSO-treated group (C) and the sample-added group (Ti) measured on the day of effect determination, the percentage of cell proliferation inhibition was calculated according to the following Equation 1. [(Ti−Tz)/(C−Tz)]×100 for concentrations for which Ti≥Tz […] for concentrations for which Ti<Tz. [Equation 1]

Series [3] is described as follows: Mouse pharmacokinetics, oral single dose. In kind it is in vivo. The following applies: plasma, mice (ICR, male), oral single dose 30 mg/kg; for AUC: read-out: Area under oral curve (AUC). The method, then: Pharmacokinetics of the synthetic compounds as EZH2 inhibitors in mice (ICR, 8-week-old, male) were tested.
The oral administration group was maintained in a fasting state from the day before the test to 4 hours after administration of the test compound. On the day of administration of the test compound, the weight of each animal was measured and each synthetic compound was formulated using a selected solvent based on 30 mg/kg (10 mL/kg). Each test compound was administered orally in a single dose, a certain amount of the blood was taken at a predetermined time, plasma was isolated therefrom, and the concentration of each test compound in the plasma was analyzed using LC-MS/MS (Waters UPLC H-Class/Xevo TQ; Waters, USA). Pharmacokinetic coefficients were calculated by a linear-log trapezoidal summation formula using a non-compartment analysis of the Phoenix™ WinNonlin (Certara, USA) program through the plasma concentration curve over time.

The next series has as its target T1, EZH1 (Homo sapiens, UniProt Q92800).
T1 construct: purchased Reaction Biology Corp. (contract assay)
In words: Inhibitory activity against EZH1 methyltransferase (radiometric scintillation proximity assay).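 Note: Read-out is methylation of a substrate peptide, captured on streptavidin-coated SPA beads and counted by scintillation, in Tris-HCl buffer at pH 8.0 with 1% DMSO.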 In kind it is biochemical. The following applies: 2.3 nmol/L enzyme, 90 minutes, room temperature.

Series [4] can be described thus: Metabolic stability in human liver microsomes. In kind it is in vitro ADME. The conditions noted are these: 5 μM compound, 1 mg/mL human liver microsomes, 37° C., NADPH regenerating system. The procedure: as §1
Series [5] relates to KARPAS-422 (EZH2 Y641N mutation). In words: Cell growth inhibition test, KARPAS-422. In kind it is cell-based. The following applies: KARPAS-422, culture time 7 days, read-out: Cell growth inhibitory activity (GI50, nM) KARPAS-422 (EZH2 Y641N mutation).
The mark [6] stands for this setting: Homo sapiens, KARPAS-422, 168 h.

Like-named read-outs stand apart in the source and are kept apart here.

From US12344618B2, “Heterotricyclic derivative compound and use of same” (HANMI PHARMACEUTICAL CO., LTD., priority 2019, dated 2025) come the findings set out here.

As a reminder, the IC50 is the midpoint of a concentration-inhibition curve. Read a high IC50 as a need for much substance. By GI50 is commonly meant the concentration at which growth is held to half of that of the control. By AUC is commonly meant concentration integrated over time.

T1 sequence (Q92800 whole entry): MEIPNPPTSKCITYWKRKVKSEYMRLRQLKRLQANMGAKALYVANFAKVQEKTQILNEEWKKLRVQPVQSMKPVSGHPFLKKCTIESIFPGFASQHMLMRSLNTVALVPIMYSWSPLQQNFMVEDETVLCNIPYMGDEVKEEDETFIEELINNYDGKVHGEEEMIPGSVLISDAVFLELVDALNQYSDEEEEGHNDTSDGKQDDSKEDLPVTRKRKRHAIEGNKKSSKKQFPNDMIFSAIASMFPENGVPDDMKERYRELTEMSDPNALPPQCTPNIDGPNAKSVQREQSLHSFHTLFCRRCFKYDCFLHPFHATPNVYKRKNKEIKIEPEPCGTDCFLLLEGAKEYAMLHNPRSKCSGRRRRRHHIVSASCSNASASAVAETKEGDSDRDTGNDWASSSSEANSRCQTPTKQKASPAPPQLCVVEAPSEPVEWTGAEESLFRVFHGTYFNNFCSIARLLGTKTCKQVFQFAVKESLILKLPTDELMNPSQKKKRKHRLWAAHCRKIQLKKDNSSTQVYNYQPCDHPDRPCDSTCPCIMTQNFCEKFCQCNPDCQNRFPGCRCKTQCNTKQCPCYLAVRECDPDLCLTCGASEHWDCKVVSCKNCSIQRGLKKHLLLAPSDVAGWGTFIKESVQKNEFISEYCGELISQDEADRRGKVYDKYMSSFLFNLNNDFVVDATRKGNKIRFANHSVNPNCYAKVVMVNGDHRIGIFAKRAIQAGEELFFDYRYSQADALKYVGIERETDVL
T1 sequence (O75530 whole entry partner): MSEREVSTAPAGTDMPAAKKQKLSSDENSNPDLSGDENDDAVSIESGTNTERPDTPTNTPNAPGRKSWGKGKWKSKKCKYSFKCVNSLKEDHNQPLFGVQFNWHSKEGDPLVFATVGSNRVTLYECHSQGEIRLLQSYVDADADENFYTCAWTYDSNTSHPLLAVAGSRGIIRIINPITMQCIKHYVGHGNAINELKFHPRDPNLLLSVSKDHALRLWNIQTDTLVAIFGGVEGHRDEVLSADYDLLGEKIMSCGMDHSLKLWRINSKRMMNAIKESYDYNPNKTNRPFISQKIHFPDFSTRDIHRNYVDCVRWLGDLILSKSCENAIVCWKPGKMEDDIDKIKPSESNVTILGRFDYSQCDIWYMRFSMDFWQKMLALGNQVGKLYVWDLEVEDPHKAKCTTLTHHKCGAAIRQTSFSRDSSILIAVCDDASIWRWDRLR
T1 sequence (Q15022 whole entry partner): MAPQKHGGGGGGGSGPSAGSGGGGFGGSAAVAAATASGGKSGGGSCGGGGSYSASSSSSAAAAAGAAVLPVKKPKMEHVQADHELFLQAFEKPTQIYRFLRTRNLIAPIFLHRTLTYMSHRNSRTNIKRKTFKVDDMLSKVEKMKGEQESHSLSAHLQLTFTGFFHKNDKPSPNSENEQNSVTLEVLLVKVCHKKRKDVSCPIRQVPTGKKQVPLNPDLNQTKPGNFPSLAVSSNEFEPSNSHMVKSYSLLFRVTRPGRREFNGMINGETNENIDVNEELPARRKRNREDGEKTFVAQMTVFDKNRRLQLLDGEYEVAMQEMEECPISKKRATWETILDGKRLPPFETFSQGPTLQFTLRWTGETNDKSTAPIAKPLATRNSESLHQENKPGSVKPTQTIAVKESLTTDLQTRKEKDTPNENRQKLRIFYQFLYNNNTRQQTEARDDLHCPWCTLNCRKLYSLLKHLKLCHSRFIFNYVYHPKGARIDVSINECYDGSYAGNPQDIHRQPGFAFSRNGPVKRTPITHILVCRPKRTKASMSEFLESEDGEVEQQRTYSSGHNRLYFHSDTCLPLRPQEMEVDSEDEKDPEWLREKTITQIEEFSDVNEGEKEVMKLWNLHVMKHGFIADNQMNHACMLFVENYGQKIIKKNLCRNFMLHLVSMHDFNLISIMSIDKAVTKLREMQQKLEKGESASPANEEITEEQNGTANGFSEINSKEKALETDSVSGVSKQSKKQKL
T1 sequence (Q09028 whole entry partner): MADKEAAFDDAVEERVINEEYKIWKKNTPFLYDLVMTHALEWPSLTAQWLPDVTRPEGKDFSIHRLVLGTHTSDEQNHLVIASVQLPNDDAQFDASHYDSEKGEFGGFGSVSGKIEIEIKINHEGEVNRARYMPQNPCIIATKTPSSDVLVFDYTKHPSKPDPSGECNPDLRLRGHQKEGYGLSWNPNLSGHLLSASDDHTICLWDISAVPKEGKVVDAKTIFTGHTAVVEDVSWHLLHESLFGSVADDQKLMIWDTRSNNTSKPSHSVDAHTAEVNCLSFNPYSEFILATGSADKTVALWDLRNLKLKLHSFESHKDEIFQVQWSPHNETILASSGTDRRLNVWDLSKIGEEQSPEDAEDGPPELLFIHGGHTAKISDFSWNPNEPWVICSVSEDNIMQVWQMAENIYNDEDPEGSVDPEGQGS
T1 sequence (Q6ZN18 whole entry partner): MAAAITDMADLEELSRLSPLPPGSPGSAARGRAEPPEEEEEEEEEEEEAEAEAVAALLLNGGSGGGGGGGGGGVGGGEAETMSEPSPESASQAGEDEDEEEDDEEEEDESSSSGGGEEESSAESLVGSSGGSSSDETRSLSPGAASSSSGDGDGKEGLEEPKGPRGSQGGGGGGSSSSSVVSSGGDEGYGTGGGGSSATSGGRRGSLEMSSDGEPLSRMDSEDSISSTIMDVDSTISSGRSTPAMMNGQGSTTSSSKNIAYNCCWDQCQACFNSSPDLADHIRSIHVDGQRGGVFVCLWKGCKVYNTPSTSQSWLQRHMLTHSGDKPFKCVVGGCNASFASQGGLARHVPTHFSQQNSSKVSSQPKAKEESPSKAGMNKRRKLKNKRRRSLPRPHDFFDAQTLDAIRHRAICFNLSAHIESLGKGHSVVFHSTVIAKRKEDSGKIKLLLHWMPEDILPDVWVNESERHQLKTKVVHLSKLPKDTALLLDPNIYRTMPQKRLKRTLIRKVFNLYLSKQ
Chain of EZH2 (Q15910 whole entry): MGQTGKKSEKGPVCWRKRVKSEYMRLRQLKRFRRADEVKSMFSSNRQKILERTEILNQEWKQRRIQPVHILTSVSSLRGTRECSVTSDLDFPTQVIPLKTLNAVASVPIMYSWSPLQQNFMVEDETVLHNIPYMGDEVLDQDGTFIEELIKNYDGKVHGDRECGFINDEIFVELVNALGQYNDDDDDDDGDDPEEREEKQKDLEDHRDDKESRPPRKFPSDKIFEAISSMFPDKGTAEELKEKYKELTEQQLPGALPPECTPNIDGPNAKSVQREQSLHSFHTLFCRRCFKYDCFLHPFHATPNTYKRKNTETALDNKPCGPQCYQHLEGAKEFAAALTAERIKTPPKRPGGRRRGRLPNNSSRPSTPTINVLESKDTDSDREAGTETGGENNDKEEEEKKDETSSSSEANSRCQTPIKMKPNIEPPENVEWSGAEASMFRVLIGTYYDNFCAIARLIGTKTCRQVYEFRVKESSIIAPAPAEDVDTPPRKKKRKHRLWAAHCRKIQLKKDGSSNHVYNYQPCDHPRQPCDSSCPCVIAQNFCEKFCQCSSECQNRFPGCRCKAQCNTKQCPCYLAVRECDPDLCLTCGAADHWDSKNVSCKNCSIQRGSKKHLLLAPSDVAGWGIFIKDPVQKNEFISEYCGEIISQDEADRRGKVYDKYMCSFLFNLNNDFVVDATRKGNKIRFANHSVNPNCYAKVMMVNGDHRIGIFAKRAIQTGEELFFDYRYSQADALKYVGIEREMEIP
Chain of EZH2 (O75530 whole entry partner): as the sequence (O75530 whole entry partner) above
Chain of EZH2 (Q15022 whole entry partner): as the sequence (Q15022 whole entry partner) above
Chain of EZH2 (Q09028 whole entry partner): as the sequence (Q09028 whole entry partner) above
Chain of EZH2 (Q6ZN18 whole entry partner): as the sequence (Q6ZN18 whole entry partner) above

As to `Cc1cc(C)c(CN2CCc3c(Cl)c4c(c(C)c3C2=O)OC(C)([C@H]2CC[C@H](N(C)C)CC2)O4)c(=O)[nH]1` (mixture of isomers) [Compound 9, 9-chloro-6-((4,6-dimethyl-2-oxo-1,2-dihydropyridin-3-yl)methyl)-2-(trans-4-(dimethylamino)cyclohexyl)-2,4-dimethyl-7,8-dihydro-[1,3]dioxolo[4,5-g]isoquinolin-5(6H)-one], the figures for the IC50 at EZH2 and at EZH1 were 1.5 to 5 nM and 16 to 43 nM, respectively. In series [1], the “Residual amount (%) of test compound after 1 hour of reaction, Mouse” value (shortened to “Residual amount (%) of test compound … Mouse”) was found to be 56%. For the same compound, the GI50 was 0.97 nM in series [2] and 2 to 15 nM in series [5] (setting [6]). Besides, the exposure (AUC) in series [3] (male, ICR, mouse, po, 30 mg/kg) is 14900 to 16400 ng·h/mL. Besides, the “Half life T1/2” value in series [3] is listed as 2.4~2.3 hr. Besides, the “Residual amount (%) of test compound after 1 hour of reaction, Human” value (from here on “Residual amount (%) of test compound … Human”) in series [4] was 57%.
As for `Cc1cc(C)c(CN2CCc3c(Cl)c4c(c(C)c3C2=O)OC(C)([C@H]2CC[C@H](N(C)C)CC2)O4)c(=O)[nH]1` (single isomer, unassigned) [Compound 10, 9-chloro-6-((4,6-dimethyl-2-oxo-1,2-dihydropyridin-3-yl)methyl)-2-(trans-4-(dimethylamino)cyclohexyl)-2,4-dimethyl-7,8-dihydro-[1,3]dioxolo[4,5-g]isoquinolin-5(6H)-one], the IC50 was 0.8 to 1.4 nM at EZH2 and 10 to 21 nM against EZH1. Also, the “Residual amount (%) of test compound … Mouse” value in series [1] turned out to be 55%. Also, the 50% growth inhibitory concentration (GI50) is 0.84 nM in series [2] and 2.5 to 13 nM in series [5]. Also, in series [4], the “Residual amount (%) of test compound … Human” value came out at 79%.
`Cc1cc(C)c(CN2CCc3c(C)c4c(c(C)c3C2=O)OC(C)([C@H]2CC[C@H](N(C)C)CC2)O4)c(=O)[nH]1` (single isomer, unassigned) [Compound 40, 6-((4,6-dimethyl-2-oxo-1,2-dihydropyridin-3-yl)methyl)-2-(trans-4-(dimethylamino)cyclohexyl)-2,4,9-trimethyl-7,8-dihydro-[1,3]dioxolo[4,5-g]isoquinolin-5(6H)-one]: the IC50 came to 1.8 nM against EZH2 and 28 nM on EZH1. Further, the “Residual amount (%) of test compound … Mouse” value in series [1] was 84%. The figures for the GI50 in series [2] and in series [5] were 0.71 nM and 1.8 nM, respectively. Further, the “Residual amount (%) of test compound … Human” value in series [4] stood at 82%.
On to `Cc1cc(C)c(CN2CCc3c(Br)c4c(c(C)c3C2=O)OC(C)([C@H]2CC[C@H](N(C)C)CC2)O4)c(=O)[nH]1` (single isomer, unassigned) [Compound 50, 9-bromo-6-((4,6-dimethyl-2-oxo-1,2-dihydropyridin-3-yl)methyl)-2-(trans-4-(dimethylamino)cyclohexyl)-2,4-dimethyl-7,8-dihydro-[1,3]dioxolo[4,5-g]isoquinolin-5(6H)-one], for which the “Residual amount (%) of test compound … Mouse” value in series [1] stood at 54%. Further, in series [3] (30 mg/kg), the “Area under oral curve (AUC)” value is reported as 12,239 ng · hr/mL and the “Half life T1/2” value turned out to be 2.5 h. In addition, the “Residual amount (%) of test compound … Human” value in series [4] came out at 35%. Further, in series [5], the GI50 was found to be 419 nM.
In the case of `Cc1cc(C)c(CN2CCc3c(C)c4c(c(Cl)c3C2=O)OC(C)([C@H]2CC[C@H](N(C)C)CC2)O4)c(=O)[nH]1` (stereo partly shown) [Compound 4], the half-inhibitory concentration (IC50) on EZH2 turned out to be 2.6 nM; on EZH1, 20 nM. Further, the “Residual amount (%) of test compound … Mouse” value in series [1] is 79%. Also, the AUC in series [3] (male, ICR, mouse, po, 30 mg/kg) was 770 ng·h/mL. The “Residual amount (%) of test compound … Human” value in series [4] is reported as 84%. The GI50 in series [5] (setting [6]) lay within 1.9 to 2.6 nM.
In the case of `Cc1cc(C)c(CN2CCc3c(Cl)c4c(c(C)c3C2=O)OC(C)([C@H]2CC[C@@H](N(C)C)CC2)O4)c(=O)[nH]1` (stereo partly drawn) [Compound 12, 9-chloro-6-((4,6-dimethyl-2-oxo-1,2-dihydropyridin-3-yl)methyl)-2-(cis-4-(dimethylamino)cyclohexyl)-2,4-dimethyl-7,8-dihydro-[1,3]dioxolo[4,5-g]isoquinolin-5(6H)-one], the IC50 at EZH2 is 3.2 nM; on EZH1 it was 23 to 50 nM. The “Residual amount (%) of test compound … Mouse” value in series [1] was 61%. In addition, the GI50 in series [2] is 0.66 nM; in series [5] (setting [6]), 4.9 to 15 nM. Besides, the “Residual amount (%) of test compound … Human” value in series [4] is on record as 57%.
Take `CN[C@H]1CC[C@H](C2(C)Oc3c(C)c4c(c(Cl)c3O2)CCN(Cc2c(C)cc(C)[nH]c2=O)C4=O)CC1` (stereo partly drawn) [Compound 34, 9-chloro-6-((4,6-dimethyl-2-oxo-1,2-dihydropyridin-3-yl)methyl)-2,4-dimethyl-2-(trans-4-(methylamino)cyclohexyl)-7,8-dihydro-[1,3]dioxolo[4,5-g]isoquinolin-5(6H)-one]: the figures for the IC50 against EZH2 and at EZH1 were 1.4 nM and 9.7 nM, respectively. Further, in series [1], the “Residual amount (%) of test compound … Mouse” value is recorded as 100%. The GI50 was 1.48 nM in series [2] and 3.2 nM in series [5] (setting [6]). In addition, the “Residual amount (%) of test compound … Human” value in series [4] came to 66%.
As to `COc1cc(C)[nH]c(=O)c1CN1CCc2c(C)c3c(c(C)c2C1=O)OC(C)([C@H]1CC[C@H](N(C)C)CC1)O3` (stereo partly drawn) [Compound 42, 2-(trans-4-(dimethylamino)cyclohexyl)-6-((4-methoxy-6-methyl-2-oxo-1,2-dihydropyridin-3-yl)methyl)-2,4,9-trimethyl-7,8-dihydro-[1,3]dioxolo[4,5-g]isoquinolin-5(6H)-one], the values for the IC50 on EZH2 and against EZH1 were 3.4 to 6 nM and 31 to 34 nM, respectively. Also, in series [1], the “Residual amount (%) of test compound … Mouse” value was found to be 88%. Further, the GI50 in series [2] lay within 0.97 to 1.41 nM; in series [5] (setting [6]) it was 2.6 to 8.8 nM. In series [4], the “Residual amount (%) of test compound … Human” value amounted to 74%.
With `CCCc1cc(C)[nH]c(=O)c1CN1CCc2c(C)c3c(c(C)c2C1=O)OC(C)([C@H]1CC[C@H](N(C)C)CC1)O3` (stereo partly shown) [Compound 43], the IC50 against EZH2 was 1.4 nM; against EZH1, 8.1 nM. Moreover, the “Residual amount (%) of test compound … Mouse” value in series [1] is on record as 61%. In addition, the GI50 in series [2] stood at 6.76 nM; in series [5] (setting [6]), 58 nM. The “Residual amount (%) of test compound … Human” value in series [4] was found to be 52%.
Take `Cc1cc(C)c(CN2CCc3c(Br)c4c(c(C)c3C2=O)OC(C)([C@H]2CC[C@H](N(C)C)CC2)O4)c(=O)[nH]1` (stereo partly drawn) [Compound 48, 9-bromo-6-((4,6-dimethyl-2-oxo-1,2-dihydropyridin-3-yl)methyl)-2-(trans-4-(dimethylamino)cyclohexyl)-2,4-dimethyl-7,8-dihydro-[1,3]dioxolo[4,5-g]isoquinolin-5(6H)-one]: the “Residual amount (%) of test compound … Mouse” value in series [1] came to 52%. Also, the GI50 in series [2] is 0.77 nM; in series [5] (setting [6]), 3.7 to 12.4 nM. The AUC in series [3] (male, ICR, mouse, po, 30 mg/kg) fell in the range of 17300 to 18700 ng·h/mL. Also, in series [3] (male, ICR, mouse, po, 30 mg/kg, read-out: Half life T1/2 (converted)), the half-life was 2.8 to 3.2 h. Besides, the “Residual amount (%) of test compound … Human” value in series [4] was determined as 54%.
As for `CN[C@H]1CC[C@H](C2(C)Oc3c(C)c4c(c(Br)c3O2)CCN(Cc2c(C)cc(C)[nH]c2=O)C4=O)CC1` (stereo partly drawn) [Compound 51, 9-bromo-6-((4,6-dimethyl-2-oxo-1,2-dihydropyridin-3-yl)methyl)-2,4-dimethyl-2-(trans-4-(methylamino)cyclohexyl)-7,8-dihydro-[1,3]dioxolo[4,5-g]isoquinolin-5(6H)-one], the IC50 on EZH2 is 1.6 nM; on EZH1, 41 nM. For the same compound, in series [1], the “Residual amount (%) of test compound … Mouse” value is reported as 64%. In addition, the AUC in series [3] (male, ICR, mouse, po, 30 mg/kg) amounted to 1520 ng·h/mL. For the same compound, the “Residual amount (%) of test compound … Human” value in series [4] was 70%. The GI50 in series [5] (setting [6]) worked out at 4.4 nM.
